# Laboratory results from patent US20240118281A1, “ANTICANCER COMPOUNDS AND USES THEREOF” (University of Florida Research Foundation, Incorporated, priority 2021, published 2024).
# What was measured:
# AGR2 [1] = target: T1, AGR2 (Homo sapiens, UniProt O95994); experiment: DDA-AGR2 binding assay, Streptavidin-Alkaline Phosphatase blot; parameters: made in house; host or cells: E. coli BL21(DE3), pET-45b(+); conditions: 37° C., non-reducing SDS-PAGE, FIG. 2B
# T1 sequence (O95994 21-175): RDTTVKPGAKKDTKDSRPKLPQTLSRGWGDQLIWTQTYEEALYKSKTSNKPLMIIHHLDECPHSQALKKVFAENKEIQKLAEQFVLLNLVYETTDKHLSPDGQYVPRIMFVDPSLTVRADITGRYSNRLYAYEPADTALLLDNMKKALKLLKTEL
# Protocol: Competent BL21(DE3) cells were transformed with either the AGR2/pET-45b(+) or AGR2 C81S/pET-45b(+) vectors. Protein expression was induced by the addition of 50 µM Isopropyl β-D-1-thiogalactopyranoside (Fisher Scientific, Fair Lawn, NJ) to bacterial cell cultures for 2.5 hours and shaking at 37° C. Bacterial cells were subsequently pelleted and dissolved in Mouse Tonicity Phosphate Buffered Saline (MTPBS) containing 1% Triton X-100 and sonicated for 20 seconds on ice, followed by centrifugation for 10 min at 4° C. to pellet cell debris. The supernatant was transferred to a new tube, followed by the addition of TALON Resin (Clontech, Mountain View, CA) and mixing on a Nutator for 30 min at 4° C. The TALON Resin was pelleted by centrifugation and washed twice with MTPBS and twice with MTPBS containing 30 mM Imidazole. Protein bound to the TALON Resin was eluted with 400 mM Imidazole and precipitated with 60% saturated ammonium sulfate. The precipitated protein was pelleted by centrifugation, dissolved in MTPBS containing 1 mM DTT and 1 mM EDTA, and subsequently dialyzed against a solution of MTPBS containing 10 μM DTT and 30% Glycerol.
# (§1) Purified His6-AGR2 or His6-AGR2 C81S, as prepared above, or His6-AGR2 (PRO-580) or His6-AGR3 (PRO-242) obtained from ProSpec (New Brunswick NJ) were incubated with or without varying concentrations of the unlabeled DDA competitors, tcyDTDO or dMtcyDTDO, and 30 μM Biotin-GlyPyrDTDO or Biotin-PyrDTDO in buffer (20 mM HEPES (pH 7.4), 1 mM EDTA, 1 mM EGTA, 5% Glycerol, 1 nM Microcystin, 1 mM Na3VO4, and 40 mM Na2H2P2O7) containing 1% Triton-X 100 for 30 min at 37° C. […] Therefore, the two probes were used interchangeably. Reactions were stopped by boiling the samples in 2×-SDS-Sample Buffer containing 100 mM NEM for 10 min. Biotin-DDA labeling of protein was verified by blotting with Streptavidin-Alkaline Phosphatase (Rockland Immunochemicals, Inc., Limerick, PA). ERp44 (PRO-547) and PDIA1 (ENZ-262) were obtained from ProSpec and used in experiments examining the binding of these proteins to Biotin-PyrDTDO.
# [2] = tested on: proteins in intact cells and purified proteins in vitro; experiment: Preliminary studies of biotinylated DDA protein labeling
# Protocol: as §1
# C81S AGR2 mutant = target: T2, C81S AGR2 mutant (Homo sapiens, UniProt O95994, C81S); experiment: DDA-AGR2 binding assay, C81S mutant; conditions: FIG. 2D
# T2 construct: made in house; host or cells: E. coli BL21(DE3), pET-45b(+)
# Protocol: Total RNA from BT474 cells was extracted with TRIzol Reagent (Invitrogen, Waltham, MA) according to the manufacturer's protocol. Total cellular RNA was used to synthesize first-strand cDNA by using the PCR conditions listed: 25° C. for 10 min, 42° C. for 30 min, and 95° C. for 5 min. PCR was subsequently performed using the following AGR2 primers: 5′-[…]-3′ and 5′-[…]-3′. The PCR fragment encoding AGR2 was subsequently digested with BamHI and SnaBI and cloned into the 5′ BamHI and 3′ SnaBI sites of pMXs-IRES-Blasticidin. The AGR2/pMXs-IRES-Blasticidin vector was used as a template for PCR reactions using the following AGR2 primers to amplify the DNA sequence downstream of the AGR2 signal sequence and to add 5′-BamHI and 3′-SalI sites: 5′-[…]-3′ and 5′-[…]-3′. The PCR fragment was digested with BamHI and SalI and cloned into the 5′ BamHI and 3′ SalI sites of pET-45b(+) (Novagen Burlington, MA). QuikChange mutagenesis was performed to produce the C81S mutation of AGR2 using the follow primers: 5′- […]-3′ and 5′-[…]-3′. The C81S mutation of AGR2 was verified by sequencing.
# Competent BL21(DE3) cells were transformed with either the AGR2/pET-45b(+) or AGR2 C81S/pET-45b(+) vectors. Protein expression was induced by the addition of 50 µM Isopropyl β-D-1-thiogalactopyranoside (Fisher Scientific, Fair Lawn, NJ) to bacterial cell cultures for 2.5 hours and shaking at 37° C. […]
# AGR3 = target: T3, AGR3 (Homo sapiens, UniProt Q8TD06); experiment: DDA binding assay with AGR3; conditions: FIG. 2D
# T3 construct: His6 (N); purchased ProSpec PRO-242
# Protocol: as §1
# [3] = tested on: MDA-MB-468 and BT474 cells; experiment: Immunoblot analysis of treated cells (FIG. 9D); type: cell-based; conditions: 24 h
# Description: The BT20, BT474, BT549, MCF7, MDA-MB-231, MDA-MB-436, MDA-MB-468, HCC1143, HCC1500, HCC1569, HCC1937, HCC1954, Hs578t, and T47D cells lines were purchased from American Type Culture Collection (ATCC) (Manassas, VA). The HCI-001 cell line was derived from an ER-/PR-/HER2- patient-derived xenograft originally isolated from a patient as described previously (DeRose Y S, et al. Nat Med 2011; 17: 1514-1520). The HCI-001/LVM2 model was derived from the HCI-001 cell line by performing two rounds of selection for liver metastasis, as described previously (Wang M, et al. Cell Death Discovery 2019; 5: 153). Cell lines were grown in Dulbecco's Modified Eagle's Medium (GE Healthcare Life Sciences, Logan, UT) containing 10% fetal bovine serum (10% FBS—DMEM) in a humidified incubator with 5% CO2 at 37° C. Cell lysates were prepared as described previously (Law B K, et al. Mol Cell Biol. 2002; 22: 8184-8198). […]
# PDIA1 [4] = target: T4, PDIA1 (Homo sapiens, UniProt P07237); experiment: Biotin-PyrDTDO/Streptavidin-agarose pulldown from treated cells; type: cell-based; parameters: endogenous in cells; host or cells: MDA-MB-468, BT474, T47D; conditions: for PDIA1 in Streptavidin-Agarose pulldown: 100 μM, 16 h
# Protocol: (§2) Cells were treated with Biotin-PyrDTDO with or without the pan-Caspase inhibitor Q-VD-OPH (MedChemExpress, Monmouth Junction, NJ) for 16 h in 10% FBS-DMEM, followed by the addition of 25 mM N-ethylmaleimide (NEM) (Thermo Scientific, Rockford, IL) for 20 min at 37° C. Cells were subsequently scraped directly into the media, washed twice with ice-cold PBS, and pelleted by centrifugation. Cells were extracted in buffer (20 mM HEPES (pH 7.4), 1 mM EDTA, 1mM EGTA, 5% Glycerol, 1 nM Microcystin, 1 mM Na3VO4, and 40 mM Na2H2P2O7) containing 1% Triton X-100. Samples were sonicated, followed by centrifugation for 20 min at 4° C. The supernatant was pre-cleared with Sepharose CL-6B (Amersham Biosciences AP, Uppsala, Sweden) for 2 h at 4° C. Pre-cleared samples were then incubated with Streptavidin (SA)-Agarose (Thermo Scientific, Rockford IL) and mixed on a Nutator for 24 h at 4° C. SA-Agarose was washed three times with extraction buffer containing 0.1% Triton X-100, followed by the addition of 2×-SDS Sample buffer containing 2 mM biotin. Samples were analyzed by immunoblot, silver stain, or probing with Streptavidin-Alkaline Phosphatase.
# ERp44 [5] = target: T5, ERp44 (Homo sapiens, UniProt Q9BS26); experiment: as above; type: cell-based; parameters: endogenous in cells; host or cells: MDA-MB-468, BT474, T47D; conditions: for ERp44 in Streptavidin-Agarose pulldown: 100 μM, 16 h
# T5 sequence (Q9BS26 30-406): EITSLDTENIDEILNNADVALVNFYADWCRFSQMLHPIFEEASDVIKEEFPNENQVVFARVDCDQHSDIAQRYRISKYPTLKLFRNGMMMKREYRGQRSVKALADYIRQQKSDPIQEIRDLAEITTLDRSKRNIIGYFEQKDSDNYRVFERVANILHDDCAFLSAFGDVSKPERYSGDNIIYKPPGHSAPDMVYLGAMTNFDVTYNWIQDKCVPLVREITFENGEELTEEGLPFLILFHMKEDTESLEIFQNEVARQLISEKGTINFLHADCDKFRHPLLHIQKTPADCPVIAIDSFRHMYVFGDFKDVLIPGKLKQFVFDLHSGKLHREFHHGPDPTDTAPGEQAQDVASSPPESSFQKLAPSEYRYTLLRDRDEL
# Protocol: as §2
# PDIA1 [6] = target: T4, PDIA1; experiment: In vitro binding assay with recombinant purified PDIA1; conditions: FIG. 3D
# Protocol: as §1
# AGR2 [7] = target: T1, AGR2; experiment: Biotin-PyrDTDO/Streptavidin-agarose pulldown from treated cells; type: cell-based; parameters: expressed in transfected cells; conditions: T47D and BT474 cells, 100 μM, 16 h, FIG. 3C left
# Protocol: as §2
# ERp5 = target: T6, ERp5 (Homo sapiens, UniProt Q15084); experiment: as above; type: cell-based; conditions: FIG. 10A
# T6 construct: endogenous in cells
# Protocol: as §2
# ERp57 = target: T7, ERp57 (Homo sapiens, UniProt P30101); experiment: as above; type: cell-based; conditions: FIG. 10A
# T7 construct: endogenous in cells
# Protocol: as §2
# ERp44 [8] = target: T5, ERp44; experiment: In vitro binding assay with recombinant purified ERp44; conditions: FIG. 3D
# Protocol: as §1
# [9] = tested on: HCI-001/LVM2 breast tumors and associated liver metastases; experiment: HCI-001/LVM2 breast tumor liver metastasis study, H&E staining of livers; type: in vivo, mice; conditions: 20 mg/kg oral gavage once daily, four consecutive days; necrosis not observed in vehicle treated tumors
# Protocol: Breast cancer liver metastasis was initiated in NOD-SCID-gamma (NSG) mice obtained from Jackson Laboratories (Bar Harbor, ME) by injecting 1×10^6 cancer cells into the #4 mammary fat pads as described previously (Wang M, et al. Cell Death Discovery 2019; 5: 153). Mice bearing HCI-001/LVM2 breast tumors were treated once daily for four consecutive days with 20 mg/kg tcyDTDO by oral gavage and livers were collected. Animals bearing HER2+ BT474 tumors were treated with the vehicle or 20 mg/kg dMtcyDTDO or dFtcyDTDO by intraperitoneal injection for four consecutive days. Tissue samples fixed in 4% paraformaldehyde/PBS and paraffin-embedded were sectioned and stained with hematoxylin and eosin (H&E) by the University of Florida Molecular Pathology Core (https://molecular.pathology.ufl.edu/).
# [10] = MDA-MB-468 cells, FIG. 3C right
# [11] = T47D and BT474 cells, FIG. 3C left
# T4 sequence (P07237 18-508): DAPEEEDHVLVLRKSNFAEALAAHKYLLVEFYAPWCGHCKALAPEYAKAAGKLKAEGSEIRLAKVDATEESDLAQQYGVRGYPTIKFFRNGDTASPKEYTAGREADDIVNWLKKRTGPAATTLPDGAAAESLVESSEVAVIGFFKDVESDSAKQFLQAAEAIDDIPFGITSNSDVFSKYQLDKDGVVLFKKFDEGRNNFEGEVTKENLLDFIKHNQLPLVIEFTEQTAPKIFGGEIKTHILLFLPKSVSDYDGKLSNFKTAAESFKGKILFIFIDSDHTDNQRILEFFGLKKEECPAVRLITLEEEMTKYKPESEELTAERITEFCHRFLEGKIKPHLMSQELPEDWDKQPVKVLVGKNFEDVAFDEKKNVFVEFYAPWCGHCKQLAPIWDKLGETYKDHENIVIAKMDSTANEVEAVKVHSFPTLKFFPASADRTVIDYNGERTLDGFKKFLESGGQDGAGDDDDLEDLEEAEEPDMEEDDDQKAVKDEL
# T3 sequence (Q8TD06 22-166): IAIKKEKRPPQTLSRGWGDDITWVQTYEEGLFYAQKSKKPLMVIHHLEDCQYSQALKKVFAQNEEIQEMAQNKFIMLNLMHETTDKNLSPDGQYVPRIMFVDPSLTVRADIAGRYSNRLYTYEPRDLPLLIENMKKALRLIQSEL
# T2 sequence (O95994 21-175 C81S): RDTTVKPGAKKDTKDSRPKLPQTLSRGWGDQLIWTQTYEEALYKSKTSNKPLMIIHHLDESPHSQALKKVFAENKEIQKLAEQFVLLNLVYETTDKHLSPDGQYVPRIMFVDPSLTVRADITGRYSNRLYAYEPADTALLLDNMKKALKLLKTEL
# T6 sequence (Q15084 20-440): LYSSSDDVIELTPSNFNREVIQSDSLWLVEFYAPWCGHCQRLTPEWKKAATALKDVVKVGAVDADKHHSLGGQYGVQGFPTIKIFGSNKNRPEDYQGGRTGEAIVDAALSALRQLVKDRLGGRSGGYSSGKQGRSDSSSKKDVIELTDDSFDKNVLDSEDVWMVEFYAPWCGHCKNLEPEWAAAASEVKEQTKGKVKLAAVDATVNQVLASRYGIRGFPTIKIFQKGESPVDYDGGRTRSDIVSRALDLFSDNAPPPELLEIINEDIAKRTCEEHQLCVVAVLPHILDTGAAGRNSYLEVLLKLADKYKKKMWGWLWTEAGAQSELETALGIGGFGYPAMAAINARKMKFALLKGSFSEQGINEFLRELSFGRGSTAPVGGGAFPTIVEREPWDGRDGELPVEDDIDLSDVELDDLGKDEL
# T7 sequence (P30101 25-505): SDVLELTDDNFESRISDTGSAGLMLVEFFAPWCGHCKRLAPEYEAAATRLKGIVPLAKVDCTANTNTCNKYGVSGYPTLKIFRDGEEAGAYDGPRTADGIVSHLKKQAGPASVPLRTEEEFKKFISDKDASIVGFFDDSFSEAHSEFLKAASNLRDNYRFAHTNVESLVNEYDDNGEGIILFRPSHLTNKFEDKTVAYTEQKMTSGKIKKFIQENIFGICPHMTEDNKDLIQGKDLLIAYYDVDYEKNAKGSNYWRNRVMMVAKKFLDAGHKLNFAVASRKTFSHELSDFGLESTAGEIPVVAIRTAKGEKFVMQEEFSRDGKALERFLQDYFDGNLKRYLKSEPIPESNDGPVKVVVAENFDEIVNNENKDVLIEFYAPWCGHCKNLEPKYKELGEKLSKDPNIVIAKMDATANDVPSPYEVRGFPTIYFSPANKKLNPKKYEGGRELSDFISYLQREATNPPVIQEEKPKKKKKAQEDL
smiles,measurement,setting,value
"O=C(CCCC[C@@H]1SC[C@@H]2NC(=O)N[C@@H]21)NCC(=O)N1C[C@@H]2CS(=O)(=O)SC[C@H]2C1 (racemic) [Biotin-GlyPyrDTDO, N-(2-((4aS,7aS)- and (4aR,7aR)-2,2-Dioxidotetrahydro-1H-[1,2]dithiino[4,5-c]pyrrol-6(4H)-yl)-2-oxoethyl)-5-((3aS,4S,6aR)-2-oxohexahydro-1H-thieno[3,4-d]imidazol-4-yl)pentanamide]",Labeling of AGR2 by biotinylated DDA,AGR2 [1],labeled AGR2 in a concentration-dependent manner
same,"Labeling of proteins, comparison of the two biotinylated probes",[2],indistinguishable labeling of proteins in intact cells and purified proteins in vitro
same,Labeling of C81S AGR2 mutant by biotinylated DDA,C81S AGR2 mutant,not labeled
same,Labeling of AGR3 by biotinylated DDA,AGR3,also labeled
"CC(C)(C)OC(=O)N1C[C@@H]2CS(=O)(=O)SC[C@H]2C1 (racemic) [(±)-BocPyrDTDO, tert-Butyl-(4aS,7aS)- and (4aR,7aR)-tetrahydro-1H-[1,2]dithiino[4,5-e]pyrrole-6(4H)-carboxylate 2,2-dioxide]",Biological activity and potency compared with DTDO,[3],biologically active and showed a potency similar to DTDO
"O=C1N[C@H]2[C@H](CS[C@H]2CCCCC(=O)N2C[C@@H]3CS(=O)(=O)SC[C@H]3C2)N1 (mixture of isomers) [Biotin-PyrDTDO, (3aS,4S,6aR)-4-(5-((4aR,7aR) and (4aS,7aS)-2,2-dioxidotetrahydro-1H-[1,2]dithiino[4,5-c]pyrrol-6(4H)-yl)-5-oxopentyptetrahydro-1H-thieno[3,4-d]imidazol-2(3H)-one]",PDIA1 in additional pulldown experiments,PDIA1 [4]; FIG. 10A,detected
same,PDIA1 in Streptavidin-Agarose pulldown,PDIA1 [4]; [10],affinity purified ERp44 and PDIA1
same,PDIA1 in Streptavidin-Agarose pulldown,PDIA1 [4]; [11],isolated
same,ERp44 in additional pulldown experiments,ERp44 [5]; FIG. 10A,detected
same,ERp44 in Streptavidin-Agarose pulldown,ERp44 [5]; [10],affinity purified ERp44 and PDIA1
same,ERp44 in Streptavidin-Agarose pulldown,ERp44 [5]; [11],isolated
same,"Labeling of proteins, comparison of the two biotinylated probes",[2],indistinguishable labeling of proteins in intact cells and purified proteins in vitro
same,Labeling of PDIA1 by biotinylated DDA,PDIA1 [6],labeled ERp44 and PDIA1
same,AGR2 in Streptavidin-Agarose pulldown,AGR2 [7],isolated
same,ERp5 in additional pulldown experiments,ERp5,ERp57 and ERp5 were not
same,ERp57 in additional pulldown experiments,ERp57,ERp57 and ERp5 were not
same,Labeling of ERp44 by biotinylated DDA,ERp44 [8],labeled ERp44 and PDIA1
O=S1(=O)CC2CCCCC2CS1 (stereo not drawn) [tcyDTDO],"Liver metastases, H&E histology",[9],exhibited central necrosis
